In patent publication US5684147A, “Therapeutic anti-HIV anti-viral oligonucleotides and pharmaceutical formulations thereof” (Hybridon, Inc., priority 1994, dated 1997):
Like-named read-outs stand apart in the source and are kept apart here.

What was measured:
[1] = test system: HIV-1 (HTLVIIIB) in H9 cells; assay: Long term infection assay, p24 expression in H9 cells (antigen capture); assay type: cell-based; details: for inhibition at 0.05 µM: read-out: % inhibition of p24 compared with control
[2] = test system: HIV-1 reverse transcriptase (RT) activity in chronically infected CEM cells; details: chronically infected human T lymphocytes such as CEM; general statement without data; cited from earlier work
[3] = test system: HIV-1 (HTLVIIIB or HTLVIIIMN strains) in H9 cells; assay: HIV p24 antigen capture assay, acute infection of H9 cells; assay type: cell-based; details: Human immunodeficiency virus 1, H9, Expt. 1
Text: After infection, unabsorbed virions are removed by washing.

SMILES: Nc1ccn([C@H]2CC[C@@H](CO)O2)c(=O)n1 [ddC, dideoxycytosine]
- inhibition at 0.05 µM ([1]; Human immunodeficiency virus 1, H9, 72 h, day 3, 25mer 0.60 μM, ddC 0.05 μM): 75%
- inhibition at 0.05 µM ([1]; Human immunodeficiency virus 1, H9, 168 h, day 7, 25mer 0.60 μM, ddC 0.05 μM): 94%
- inhibition at 0.05 µM ([1]; Human immunodeficiency virus 1, H9, 240 h, day 10, 25mer 0.60 μM, ddC 0.05 μM): 91%
- inhibition at 0.05 µM ([1]; Human immunodeficiency virus 1, H9, 336 h, day 14, 25mer 0.60 μM, ddC 0.05 μM): 56%
- inhibition at 0.05 µM ([1]; Human immunodeficiency virus 1, H9, 408 h, day 17, 25mer 0.60 μM, ddC 0.05 μM): 44%
- p24 expression ([1]; day 3, 25mer 0.60 μM, ddC 0.05 μM, control 489): 124 pg/mL
- p24 expression (pg/ml) ([1]; day 7, 25mer 0.60 μM, ddC 0.05 μM, control 188,800): 10,800 pg/ml
- p24 expression (pg/ml) ([1]; day 10, 25mer 0.60 μM, ddC 0.05 μM, control 210,400): 17,300 pg/ml
- p24 expression (pg/ml) ([1]; day 14, 25mer 0.60 μM, ddC 0.05 μM, control 130,400): 60,000 pg/ml
- p24 expression (pg/ml) ([1]; day 17, 25mer 0.60 μM, ddC 0.05 μM, control 95,600): 54,000 pg/ml
- long term inhibition of p24 expression (in words) ([1]; long term culture, up to day 17): ineffectiveness of ddC
- inhibition of HIV replication in chronically infected cells (in words) [2]: do not inhibit HIV replication

SMILES: Cc1cn([C@H]2C[C@H](N=[N+]=[N-])[C@@H](CO)O2)c(=O)[nH]c1=O [AZT, 3'-azido-3'-deoxythymidine]
- inhibition at 0.005 µM ([3]; AZT 0.0016 μg/ml (0.005 μM)): 6%
- inhibition at 0.02 µM ([3]; AZT 0.008 μg/ml (0.02 μM)): 44%
- inhibition at 0.1 µM ([3]; AZT 0.04 μg/ml (0.1 μM)): 73%
- inhibition at 0.6 µM ([3]; AZT 0.2 μg/ml (0.6 μM)): 90%
- inhibition of HIV replication in chronically infected cells (in words) [2]: do not inhibit HIV replication
